Experiment [1] relates to Stimulator of interferon genes protein (Homo sapiens), Q86WV6 [C91S]. Kind of experiment: Induction of oligomerization of STING C91S (unknown origin) mutant in human HeLa cells transfected with wild type STING assessed as intracellular puncta formation at 10 uM measured after 1 hr by DAPI staining based immunofluorescence microscopy. The class given is cell-based. To be noted: filed as agonist.

Experiment [2] is described as follows: Antiviral activity against HSV infected in human HT-1080 cells assessed as reduction viral RNA expression pretreated for 1 hr followed by infection measured after 18 hrs by qRT-PCR analysis. It counts as functional, cell-based. To be noted: Herpes simplex virus unknown type. In general terms: Real-time PCR tracks product formation cycle by cycle.
A further experiment has as its system Vero. The experiment is described as follows: Cytotoxicity against interferon production defective African green monkey Vero cells assessed as cell viability measured after 72 hrs by MTT assay. It counts as functional, cell-based. To be noted: Chlorocebus sabaeus.
Experiment [3] addresses Stimulator of interferon genes protein (Homo sapiens) (UniProt Q86WV6). The experiment is described as follows: Agonist activity at STING in human THP1 cells assessed as increase in TBK1 phosphorylation at 2.5 to 20 uM measured after 5 hrs by Western blot analysis. The class given is cell-based. The following applies: THP-1, filed as agonist, dose 2.5-20 µM. For orientation: Immunoblotting shows a protein as a band on a membrane.

For experiment [4], the target named is T1, Stimulator of interferon genes protein (Mus musculus) (UniProt Q3TBT3).
T1 sequence (whole entry): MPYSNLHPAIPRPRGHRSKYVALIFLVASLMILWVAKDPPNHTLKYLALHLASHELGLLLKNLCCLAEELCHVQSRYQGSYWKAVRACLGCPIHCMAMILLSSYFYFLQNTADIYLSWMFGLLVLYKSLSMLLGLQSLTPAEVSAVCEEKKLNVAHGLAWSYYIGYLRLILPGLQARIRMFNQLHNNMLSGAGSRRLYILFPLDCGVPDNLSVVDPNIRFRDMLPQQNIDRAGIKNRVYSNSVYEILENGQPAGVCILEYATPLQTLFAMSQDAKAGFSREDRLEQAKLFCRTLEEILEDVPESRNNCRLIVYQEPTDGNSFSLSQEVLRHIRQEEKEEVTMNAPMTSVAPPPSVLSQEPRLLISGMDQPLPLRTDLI
The experiment is described as follows: Agonist activity at STING in mouse BMDM cells assessed as increase in TBK1 phosphorylation at 2.5 to 20 uM measured after 5 hrs by Western blot analysis. The class given is cell-based. To be noted: filed as agonist, dose 2.5-20 µM.

For experiment [5], the target named is Stimulator of interferon genes protein (Homo sapiens) (UniProt Q86WV6). Kind of experiment: Agonist activity at STING in human HT-1080 cells assessed as increase in TBK1 phosphorylation at 20 uM measured after 5 hrs by Western blot analysis. The class given is cell-based. The following applies: filed as agonist.
For a further experiment, the system named is HT-1080. The experiment is described as follows: Synergistic increase in HSV infection-induced TBK1 phosphorylation in human HT-1080 cells by Western blot analysis. The class given is functional, cell-based.
The target in experiment [6] is Stimulator of interferon genes protein (Homo sapiens) (UniProt Q86WV6). Kind of experiment: Induction of STING-dependent gene expression in human HT-1080 cells assessed as TNFalpha mRNA expression at 20 uM incubated for 8 hrs by qRT-PCR analysis. The class given is cell-based. To be noted: filed as agonist.
Experiment [7] shares this target. Kind of experiment: Induction of STING-dependent gene expression in human THP1 cells assessed as IFNbeta mRNA expression at 2.5 to 20 uM incubated for 8 hrs by qRT-PCR analysis. The class given is cell-based. To be noted: THP-1, filed as agonist, dose 2.5-20 µM.
Experiment [8] shares this target. Kind of experiment: Induction of oligomerization of STING in human HeLa cells transfected with wild type STING (unknown origin) assessed as intracellular puncta formation at 10 uM measured after 1 hr by DAPI staining based immunofluorescence microscopy. The class given is cell-based. The following applies: filed as agonist.
The test system of another experiment is Mus musculus. The experiment is described as follows: Induction of immune-activation effect in wild type female BALB/c mouse assessed as increase in serum TNFalpha level at 15 to 30 mg/kg, ip measured after 24 to 48 hrs by ELISA relative to control. The following applies: dose 15-30 mg/kg, time 24-48 hrs. The class given is functional, organism-based. In general terms: An ELISA detects its analyte on a solid surface through an enzyme-linked reagent.

In experiment [9] the test system is Stimulator of interferon genes protein (Homo sapiens), Q86WV6 [V113Q,G114Q,P115Q]. The experiment is described as follows: Induction of STING V113Q/G114Q/P115Q mutant (unknown origin) mediated TBK1 phosphorylation in human HeLa cells transfected with STING C148A mutant at 10 uM measured after 5 hr by Western blot analysis. It counts as cell-based. To be noted: filed as agonist.

Calls of active or inactive are those of the source. No cut-off for these calls is given here.

From ChEMBL document CHEMBL5385872, “Design and syntheses of a bimolecular STING agonist based on the covalent STING antagonist” (Eur J Med Chem, 2023) come the findings set out here.

In general, EC50 refers to the concentration that produces a half-maximal response. The term IC50 denotes the concentration that gives 50% inhibition.

Sequence of Stimulator of interferon genes protein (Homo sapiens) (Q86WV6 whole entry): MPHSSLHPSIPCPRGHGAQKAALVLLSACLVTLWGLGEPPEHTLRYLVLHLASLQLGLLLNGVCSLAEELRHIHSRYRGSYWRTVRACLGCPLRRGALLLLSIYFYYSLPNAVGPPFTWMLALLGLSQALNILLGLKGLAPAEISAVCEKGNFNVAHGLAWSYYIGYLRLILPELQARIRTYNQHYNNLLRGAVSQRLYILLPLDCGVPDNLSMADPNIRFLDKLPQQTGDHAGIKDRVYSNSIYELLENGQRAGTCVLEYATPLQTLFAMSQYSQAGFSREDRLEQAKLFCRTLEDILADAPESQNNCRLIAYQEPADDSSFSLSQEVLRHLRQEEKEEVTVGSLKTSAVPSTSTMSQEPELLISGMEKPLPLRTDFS
Sequence of Stimulator of interferon genes protein (Homo sapiens), Q86WV6 [V113Q,G114Q,P115Q] (Q86WV6 whole entry V113Q/G114Q/P115Q): as the sequence (Q86WV6 whole entry) above, with V113Q, G114Q, P115Q counted along it
Sequence of Stimulator of interferon genes protein (Homo sapiens), Q86WV6 [C91S] (Q86WV6 whole entry C91S): as the sequence (Q86WV6 whole entry) above, with C91S counted along it

As to `O=C(NCCCCCNC(=O)c1ccc([N+](=O)[O-])o1)c1ccc([N+](=O)[O-])o1`, the outcome in experiment [1], in experiment [3], in [4], in experiment [5], in experiment [6] and in experiment [7] was Active. Besides, the result (in experiment [8]; in the experiment on Mus musculus; in [9]) was Active. For the same compound, in experiment [2], the EC50 turned out to be 6.15 µM. Moreover, the IC50 with Vero came out at 28.4 µM. In the experiment on HT-1080, the result was inactive.
